# Measured values from patent US12570684B2 (UNIVERSITY OF TENNESSEE RESEARCH FOUNDATION, priority 2020, dated 2026).
# Read-outs that look alike come from different tables or passages of the source.
# Legend:
# [1] = molecular target: MraY (Hydrogenivirga sp.) (Hydrogenivirga sp. 128-5-R1-1, UniProt Z9Y2G8N0L0); experiment: MraY assay; format: biochemical
# Method: Expression and purification of HyMraY. The gene mraY of Hydrogenivirga spp. 128-5-R1-1 was cloned with a N-terminal His6 tag into a pET22b vector. […] The proteins were purified using a nickel, cation exchange, and size exclusion chromatography.
# MraY assay. MraY assay substrates, Park's nucleotide-N^ε-C6-dansylthiourea, neryl phosphate, were chemically synthesized according to the reported procedures.^7 Park's nucleotide-N^ε-C6-dansylthiourea (2 mM stock solution, 1.88 jiL), MgCl2 (0.5 M, 5 jiL), KCl (2 M, 5 jiL), Triton X-100 (0.5%, 5.63 jiL), Tris buffer (pH 8.0, 50 mM), neryl phosphate (0.1 M, 2.25 jiL), and inhibitor molecule (0-50 .ig/mL in Tris buffer) were placed in a 1.5 mL Eppendorf tube. […] (26° C.) and quenched with CHCl3 (100 jiL). […] The aqueous phase was assayed via reverse-phase HPLC.
# [2] = molecular target: T1, DPAGT1 (Human) (Homo sapiens, UniProt Q9H3H5); experiment: DPAGT1 assay; format: biochemical
# T1 construct: made in house; host or cells: Expi293 cells (suspension)
# T1 sequence (Q9H3H5 1-408): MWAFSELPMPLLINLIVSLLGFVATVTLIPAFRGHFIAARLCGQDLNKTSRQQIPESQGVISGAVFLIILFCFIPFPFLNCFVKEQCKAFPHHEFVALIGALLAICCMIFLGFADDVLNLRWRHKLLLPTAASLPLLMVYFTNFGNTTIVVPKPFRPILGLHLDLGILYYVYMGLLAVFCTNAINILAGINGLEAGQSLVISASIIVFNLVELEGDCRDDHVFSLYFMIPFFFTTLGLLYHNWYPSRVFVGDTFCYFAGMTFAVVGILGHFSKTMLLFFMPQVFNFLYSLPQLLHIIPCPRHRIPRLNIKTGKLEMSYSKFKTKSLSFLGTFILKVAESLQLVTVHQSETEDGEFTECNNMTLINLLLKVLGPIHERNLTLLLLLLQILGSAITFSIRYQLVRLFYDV
# Method: DPAGT1 expression and purification. DPAGT1 was expressed in suspended Expi293 cells for 36 h. The cells were lysed by drawing through a 26 g needle (10 times) and membrane protein was extracted using buffer containing 1% decyl f3-D-maltopyranoside detergent. DPAGT1 was purified using HA-agarose resin and a superdex 200 size exclusion column.
# [3] = test system: Myocobacterium tuberculosis H37Rv, Mycobacterium avium 2285, Mycobacterium smegmatis (ATCC607); experiment: Antimycobacterial activity (MIC); format: cell-based, Mycobacterium spp.; conditions: M. tuberculosis H37Rv, M. avium 2285, M. smegmatis (ATCC607)
# [4] = test system: PD002; experiment: Kinetic proliferation assay (IncuCyte); format: cell-based
# Method: Kinetic Proliferation Assay. To study the effect of treatment with DPAGT1 inhibitors on the growth and proliferation of cells, a fixed number of cells (2×10^4) were plated in multiple wells of a 96 well plate, incubated for 24 h to let cells settle down. Then, CPPB (5) was added (0-50 μM). Images were obtained every 4 h using an IncuCyte Live-Cell Imaging System (Essen BioScience, Ann Arbor, MI). After 72 h, cell proliferation was quantified using the metric phase object confluence (POC), a measurement of the area of the field of view that is covered by cells, which is calculated by the integrated software.
# [5] = test system: pancreatic cancer cell lines (Capan-2, PANC-1, and AsPC-1); experiment: Scratch (wound healing) assay; format: cell-based, human; conditions: 0.05, 0.1, and 0.2 μM, 24 h
# Method: Scratch Assay. A confluent monolayer was formed in 24-well plates. The monolayer was scratched by a sterile 200 μL pipette tip and washed with PBS to remove cell debris. Complete medium with CPPB (5) (0, 0.05, 0.1, 0.2 μM) were added and scratched areas were photographed with microscope. The scratched cells were incubated at 37° C., 5% CO2. After 24 h, medium was removed and cells were stained with a 1:1 mixture of crystal violet and PBS for 5 min., washed with PBS twice, and photographed with microscope. Wound areas were measured and recovered areas were calculated.
# [6] = test system: DPAGT1; experiment: Immunofluorescent staining of DPAGT1 expression; format: cell-based
# [7] = test system: PD002; experiment: Checkerboard synergy (FIC index) with paclitaxel; format: cell-based
# Method: The synergistic or antagonistic activities of CPPB were assessed in vitro via checkerboard technique.
# Sequence of MraY (Hydrogenivirga sp.) (Z9Y2G8N0L0 7-365 limits assumed): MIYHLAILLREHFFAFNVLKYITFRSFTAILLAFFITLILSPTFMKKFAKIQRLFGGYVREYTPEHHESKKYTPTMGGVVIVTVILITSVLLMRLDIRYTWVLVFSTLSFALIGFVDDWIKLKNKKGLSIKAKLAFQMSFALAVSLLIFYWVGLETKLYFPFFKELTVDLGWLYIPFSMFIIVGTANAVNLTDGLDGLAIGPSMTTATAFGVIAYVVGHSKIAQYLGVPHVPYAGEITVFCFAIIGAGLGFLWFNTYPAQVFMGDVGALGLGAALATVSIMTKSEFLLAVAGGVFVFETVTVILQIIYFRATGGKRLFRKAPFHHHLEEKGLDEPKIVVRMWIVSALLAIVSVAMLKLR
substance,measurement,setting,value
"(2S,3S,4S)-2-((1R)-2-Amino-1-((2S,5R)-5-(2,4-dioxo-3,4-dihydropyrimidin-1(2H)-yl)-4-hydroxy-3-methoxytetrahydrofuran-2-yl)-2-oxoethoxy)-3,4-dihydroxy-N-(4-(4-(4-(trifluoromethoxy)-phenyl)piperidin-1-yl)benzyl)-3,4-dihydro-2H-pyran-6-carboxamide [CPPB]",IC50,[1],10300 nM
same,DPAGT1 inhibitory activity (in words),[2],high nM range DPAGT1 inhibitors
same,IC50,[2],200 nM
same,DPAGT1 inhibitory strength relative to I-CPPB,[2]; CPPB vs. I-CPPB,three times stronger
same,DPAGT1 inhibitory activity relative to tunicamycin,[2]; CPPB vs. tunicamycin,~7.5 times
same,MIC,[3],6.25 to 12.5 µg/mL
same,phase area confluence of PD002 culture after 72 h,"[4]; 50 μM, same as at time 0 h, control (PBS) ca. 70%",10-13%
same,cell proliferation inhibited at time 72 h,[4]; 0.2-20 μM,ca. 20%
same,migration of pancreatic cancer cell lines vs PBS control,[5],migrated far less
same,DPAGT1 protein expression,[6],decreased
same,DPAGT1 expression in pancreatic cancer cell lines,[6]; 0.2 μM,apparently inhibited
same,order of decrease of DPAGT1 expression,[6]; 0.2 μM,PANC-1>PD002>>HCT-116
same,DPAGT1 expression levels of HCT-116,[6]; 20 μM,remained high
same,DPAGT1 expression of the pancreatic cancer cell lines at high concentration,[6]; 2-20 μM,could not completely be inhibited
same,synergistic effect with paclitaxel,[7]; PD002,strong synergistic effect
same,IC50,"[7]; alone, read-out: IC50 of the single agent against PD002",35000 nM
same,ΣFIC,"[7]; entry 1, CPPB 0.10 μM + paclitaxel 0.63 μM",0.50
same,IC50,"[7]; entry 1, with paclitaxel 0.63 μM, read-out: IC50 CA (CPPB in combination)",100 nM
same,ΣFIC,"[7]; entry 2, CPPB 0.10 μM + paclitaxel […]",0.13
same,IC50,"[7]; entry 2, with paclitaxel […], read-out: IC50 CA (CPPB in combination)",100 nM
same,ΣFIC,"[7]; entry 3, CPPB 0.20 μM + paclitaxel 0.0049 μM",0.0096
same,IC50,"[7]; entry 3, with paclitaxel 0.0049 μM, read-out: IC50 CA (CPPB in combination)",200 nM
same,ΣFIC,"[7]; entry 4, CPPB 0.20 μM + paclitaxel 0.020 μM",0.021
same,IC50,"[7]; entry 4, with paclitaxel 0.020 μM, read-out: IC50 CA (CPPB in combination)",200 nM
same,ΣFIC,"[7]; entry 5, CPPB 0.20 μM + paclitaxel 0.031 μM",0.26
same,IC50,"[7]; entry 5, with paclitaxel 0.031 μM, read-out: IC50 CA (CPPB in combination)",200 nM
same,ΣFIC,"[7]; entry 6, CPPB 2.0 μM + paclitaxel 0.020 μM",0.021
same,IC50,"[7]; entry 6, with paclitaxel 0.020 μM, read-out: IC50 CA (CPPB in combination)",2000 nM
same,ΣFIC,"[7]; entry 7, CPPB 2.0 μM + paclitaxel 0.039 μM",0.037
same,IC50,"[7]; entry 7, with paclitaxel 0.039 μM, read-out: IC50 CA (CPPB in combination)",2000 nM
same,ΣFIC,"[7]; entry 8, CPPB 2.0 μM + paclitaxel 0.31 μM",0.26
same,IC50,"[7]; entry 8, with paclitaxel 0.31 μM, read-out: IC50 CA (CPPB in combination)",2000 nM
